Laboratory results reported in PubChem BioAssay AID330 (DTP/NCI, 2004).
Toxic doses and inconclusive results are not listed. How the source made its calls: active means survival T/C of 150% or more; inactive means T/C below 125% in these data.

Tested on: P388 leukemia ip, CD2F1 mice, survival T/C
Test: NCI In Vivo Anticancer Drug Screen. Data for tumor model P388 Leukemia (intraperitoneal) in CD2F1 (CDF1) mice
Conditions: endpoint: median survival time, schedule: Q04DX002 (ip), vehicle: Klucel (hydroxypropylcellulose) (HPC), higher = longer survival
In short: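 Mice carrying the transplanted tumor received test compound or vehicle. Survival was recorded in each group, and the value is the treated-group measurement divided by that of the vehicle-treated control group.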

Measured: T/C

O=C(O)CCc1nc(-c2ccccc2)nc2c1CCc1ccccc1-2
inactive: dose: 100.0 mg/kg/injection 92 % of control | dose: 200.0 mg/kg/injection 97 % of control | dose: 400.0 mg/kg/injection 98 % of control
